Source: US12138256B2, “Treatment of cardiopulmonary disorders” (Bayer Aktiengesellschaft, priority 2021, dated 2024)
Values joined by “and” are separate entries in the source; they are usually repeats but may differ in a detail not shown here. Equal values may be shown once.

Legend:
[1] = system: thromboxane analog U46619 induced PAH in minipigs; test: Haemodynamics (PAP, BP) in the anesthetized thromboxane challenged PAH minipig after inhaled (nebulized) application (C-2.1); type: in vivo, Göttingen minipig
Experimental: Experiments were carried out in anesthetized Göttingen minipigs, anesthetized rats and conscious, telemetrically instrumented dogs. Acute pulmonary hypertension was induced for example by infusion of a thromboxane A2 analogon, by acute hypoxia treatment or hypoxia treatment over a number of weeks and/or by administration of monocrotaline. Test substances were applied via nebulization using the Nebutec® or Aeroneb® Pro nebulizer system, and/or by means of powder and/or solution applicators for experimental intratracheal administration (Liquid MicroSprayer®, Dry Powder Insufflator™, MicroSprayer®, Penn-Century Inc., Wyndmoor, PA, USA) or after solid nebulization inserted into the inspiration arm of the ventilation. Compounds were employed as solids or solutions depending on the molecular structure and the technical possibility depending on the experiment. The haemodynamic signals were recorded and evaluated by means of pressure transducers/amplifiers (Combitransducer B. Braun, Melsungen, Germany or CardioMEMS Inc., Atlanta, GA, USA) and Ponemah® or CardioMems® as data aquisition software. After long-term experiments (for example monocrotaline rat), it is also possible to carry out a histological evaluation.
Healthy Gottingen Minipigs® Ellegaard (Ellegaard, Denmark) of both sexes and having a weight of 2-6 kg were used. The animals were sedated by i.m. administration of about 25 mg/kg ketamine and about 10 mg/kg azaperone. Anaesthesia was initiated by i.v. administration of about 2 mg/kg ketamine and about 0.3 mg/kg midazolam. Maintenance of anaesthesia was by i.v. administration of about 7.5-30 mg/kg/h ketamine and about 1-4 mg/kg/h midazolam (rate of infusion 1-4 ml/kg/h) and about 150 μg/kg/h pancuronium bromide (for example Pancuronium-Actavis). After intubation, the animals were ventilated by the ventilator at a constant respiratory volume (10-12 ml/kg, 35 breaths/min; Avea®, Viasys Healthcare, USA, or Engstrom Carestation, GE Healthcare, Freiburg, Germany) such that an end-tidal CO2 concentration of about 5% was achieved. Ventilation was performed with room air, enriched with about 40% oxygen (normoxia). For the measurement of the haemodynamic parameters such as pulmonary arterial pressure (PAP), blood pressure (BP) and heart rate (HR), catheters were inserted into the carotid artery to measure the blood pressure, and a Swan-Ganz® catheter was introduced in a flow-directed manner via the jugular vein into the pulmonary artery. The haemodynamic signals were recorded and evaluated by means of pressure transducers (Combitransducer, B. Braun, Melsungen, Germany)/amplifiers and Ponemah® as data aquisition software.
After the instruments have been placed into the animals, continuous infusion of a thromboxane A2 analog was initiated to increase the pulmonary arterial pressure. […] D0400, or Cayman Chemical Company, cat. no. 16440), dissolved in physiological saline, were infused to achieve an increase of the mean pulmonary arterial pressure to values of over 25 mmHg. 30 minutes after the start of the infusion, a plateau was reached, and the experiment was started.
The test substances were administered as i.v. infusion or by inhalation. For the preparation of the solution for inhalation, the following procedure was adopted: For an animal having a weight of 4 kg, to prepare the stock solution (300 μg/kg), 1.2 mg of the test compound were weighed out and dissolved in a total volume of 3 ml (1% DMSO, 99% 0.2% strength citric acid solution, 1 N aqueous sodium hydroxide solution to adjust the pH to 8). The solution was then diluted to the concentration employed using 0.2% strength citric acid which had been adjusted to pH 8 beforehand with aqueous sodium hydroxide solution. In each test, 3 ml of the solution of test compound per 4 kg animal were nebulized in the inhalation arm of the respiratory circuit using the Aeroneb® Pro nebulizer system. The mean nebulization time was about 7 min from the start of the nebulization.

[2] = system: isolated Langendorff-perfused rat heart; test: Isolated perfused heart according to Langendorff: perfusion pressure and wash-out score (C-1.2); details: 100 nmol/l; for Perfusion pressure (%) (timepoint at 20 min) Mean: isolated Langendorff-perfused rat heart; for Perfusion pressure (%) (timepoint at 90 min) Mean: wash-out phase
Experimental: Male Wistar rats (strain HsdCpb:WU) with a body weight of 200-250 g were anaesthetized with Narcoren® (100 mg/kg). The thorax was opened and the heart was then exposed, excised and connected to a Langendorff apparatus by placing a cannula into the aorta. The heart was perfused retrogradely at 9 ml/min at constant flow with a Krebs-Henseleit buffer solution (gassed with 95% O2 and 5% CO2, pH 7.4, 35° C.; composition in mmol/l: NaCl 118; KCl 3; NaHCO3 22; KH2PO4 1.2; MgSO4 1.2; CaCl2 1.8; Glucose 10; Na pyruvate 2). A pressure transducer registered the perfusion pressure in the perfusion system. The left ventricular pressure (LVP) was measured using a second pressure transducer connected to a water-filled balloon which was inserted into the left ventricle via the left atrium. The end diastolic pressure was initially set to 8 mm Hg by adjusting the volume of the balloon. The hearts were spontaneously beating. The signals from the pressure transducer were amplified, registered by a personal computer (Powerlab Chart software, ADInstruments).
Then the hearts were perfused for a further 120 min without the test substance (wash-out phase). The reversibility of the effect (wash-out score) was calculated as a percentage of the PP recovery after 60 min of washout related to the maximum drop of PP induced by the test compound. The wash-out score obtained in this manner was taken as a measure for the residence time of the test substance at the site of action.

[3] = Particle size distribution by laser diffraction with dry dispersion; type: physicochemical; details: after micronization, dry measurement (3 or 4 bar)
Experimental: All measurements cited in the above tables were obtained by laser diffraction with dry dispersion using compressed air. Measuring in aqueous suspension with surfactants may lead to smaller particle sizes (×90 up to 1 μm smaller).
The particle size analysis data are usually reported as cumulative undersized distribution by volume. The symbol x is used to denote the particle size, which is defined as diameter of a volume equivalent sphere. Most common characteristic values are calculated from the particle size distribution by interpolation. Frequently used are the particle sizes at the undersize values of 10%, 50% and 90% of the volume distribution, denoted as x10, x50 and x90. x50 is also known as median particle size. The symbol d is widely used to designate the particle size, thus the symbol x may be replaced by the symbol d.

[4] = system: thromboxane analog U46619 induced PAH in minipigs; test: PAH minipig model: comparison with and on top of standard of care (bosentan, sildenafil, riociguat); type: in vivo, Göttingen minipig
Description: Efficacy of inhaled comparative example 11 was compared with systemically applied bosentan, sildenafil and riociguat (see FIG. 53a) in the PAH minipig model. […] Therefore inhaled application of comparative example 11 offers clear benefits as systemic effects are avoided, compared to standard of care.

[5] = inhaled 3μg/kg, 0 min vs. start inhalation
[6] = inhaled 3μg/kg, 10 min vs. start inhalation
[7] = inhaled 3μg/kg, 20 min vs. start inhalation
[8] = inhaled 3μg/kg, 30 min vs. start inhalation
[9] = inhaled 3μg/kg, 40 min vs. start inhalation
[10] = inhaled 3μg/kg, 50 min vs. start inhalation
[11] = inhaled 3μg/kg, 60 min vs. start inhalation
[12] = inhaled 3μg/kg, 70 min vs. start inhalation
[13] = inhaled 3μg/kg, 80 min vs. start inhalation
[14] = inhaled 3μg/kg, 90 min vs. start inhalation
[15] = inhaled 3μg/kg, −5 min vs. start inhalation
[16] = inhaled 100 μg/kg, 0 min vs. start inhalation
[17] = inhaled 100 μg/kg, 10 min vs. start inhalation
[18] = inhaled 100 μg/kg, 20 min vs. start inhalation
[19] = inhaled 100 μg/kg, 30 min vs. start inhalation
[20] = inhaled 100 μg/kg, −5 min vs. start inhalation
[21] = Sildenafil 300 μg/kg/h systemically applied, % change per animal

Question: Which results are given for `O=C(O)CCCCN(CCc1ccccc1OCc1ccc(CCc2ccccc2)cc1)Cc1ccc(C(=O)O)cc1` [Cinaciguat (comparative example 1)]?
Answer: % changes in BP vs baseline [1, 5]: 100% and 99%; % changes in PAP vs baseline [1, 5]: 99%; % changes in BP vs baseline [1, 6]: 91% and 89%; % changes in PAP vs baseline [1, 6]: 101% and 100%; % changes in BP vs baseline [1, 7]: 76% and 82%; % changes in PAP vs baseline [1, 7]: 99% and 98%; % changes in BP vs baseline [1, 8]: 74% and 86%; % changes in PAP vs baseline [1, 8]: 98%; % changes in BP vs baseline [1, 9]: 73% and 89%; % changes in PAP vs baseline [1, 9]: 97% and 98%; % changes in BP vs baseline [1, 10]: 82% and 94%; % changes in PAP vs baseline [1, 10]: 97% and 98%; % changes in BP vs baseline [1, 11]: 88% and 94%; % changes in PAP vs baseline [1, 11]: 97% and 99%; % changes in BP vs baseline [1, 12]: 100% and 99%; % changes in PAP vs baseline [1, 12]: 97% and 100%; % changes in BP vs baseline [1, 13]: 103% and 100%; % changes in PAP vs baseline [1, 13]: 95% and 98%; % changes in BP vs baseline [1, 14]: 105% and 102%; % changes in PAP vs baseline [1, 14]: 95% and 99%; % changes in BP vs baseline [1, 15]: 100%; % changes in PAP vs baseline [1, 15]: 100%; % changes in PAP vs baseline ([1]; inhaled 10 μg/kg, 0 min vs. start inhalation): 100% and 101%; % changes in PAP vs baseline ([1]; inhaled 10 μg/kg, 10 min vs. start inhalation): 100%; % changes in PAP vs baseline ([1]; inhaled 10 μg/kg, 20 min vs. start inhalation): 96% and 100%; % changes in PAP vs baseline ([1]; inhaled 10 μg/kg, 30 min vs. start inhalation): 94% and 100%; % changes in PAP vs baseline ([1]; inhaled 10 μg/kg, 40 min vs. start inhalation): 95% and 98%; % changes in PAP vs baseline ([1]; inhaled 10 μg/kg, 50 min vs. start inhalation): 94% and 96%; % changes in PAP vs baseline ([1]; inhaled 10 μg/kg, 60 min vs. start inhalation): 95% and 94%; % changes in PAP vs baseline ([1]; inhaled 10 μg/kg, 70 min vs. start inhalation): 93% and 94%; % changes in PAP vs baseline ([1]; inhaled 10 μg/kg, 80 min vs. start inhalation): 94% and 92%; % changes in PAP vs baseline ([1]; inhaled 10 μg/kg, 90 min vs. start inhalation): 93% and 89%; % changes in PAP vs baseline ([1]; inhaled 10 μg/kg, −5 min vs. start inhalation): 100%; Wash-out score (%) after 60 min [2]: 29.5%; Perfusion pressure (%) (timepoint at 20 min) Mean [2]: 62.1%; Perfusion pressure (%) (timepoint at 90 min) Mean [2]: 69.3%

Question: For `COC(=O)N(C)c1c(N)nc(-c2nn(Cc3ccccc3F)c3ncccc23)nc1N` [Riociguat (comparative example 2)], which “% changes in BP vs baseline” value [1, 16] is on record?
Answer: 100% and 102%

Question: What about the “% changes in PAP vs baseline” value [1, 16] of the same molecule?
Answer: 99%

Question: What about the “% changes in BP vs baseline” value [1, 17] of the same molecule?
Answer: 91% and 86%

Question: What about the “% changes in PAP vs baseline” value [1, 17] of the same molecule?
Answer: 95% and 92%

Question: And the “% changes in BP vs baseline” value [1, 18]?
Answer: 91% and 85%

Question: What about the “% changes in PAP vs baseline” value [1, 18] of the same molecule?
Answer: 94% and 90%

Question: What about the “% changes in BP vs baseline” value [1, 19] of the same molecule?
Answer: 94%

Question: And the “% changes in PAP vs baseline” value [1, 19]?
Answer: 94% and 90%

Question: And the “% changes in BP vs baseline” value [1, 20]?
Answer: 100%

Question: And the “% changes in PAP vs baseline” value [1, 20]?
Answer: 99% and 101%

Question: What about the “Wash-out score (%) after 60 min” value [2] of the same molecule?
Answer: 98.0%

Question: And the “Perfusion pressure (%) (timepoint at 20 min) Mean” value [2]?
Answer: 55.4%

Question: And the “Perfusion pressure (%) (timepoint at 90 min) Mean” value [2]?
Answer: 99.9%

Question: Which “PSD X10” value [3] does the source give for `O.O=C(O)c1ccc(CCN(CCc2ccccc2OCc2ccc(-c3ccc(C(F)(F)F)cc3)cc2Cl)[C@H]2CCCc3nc(C(=O)O)ccc32)cc1` [example 8b] here?
Answer: X10: 0.7 μm,

Question: And the “PSD X50” value [3]?
Answer: X50: 1.9 μm,

Question: What about the “PSD X90” value [3] of the same molecule?
Answer: X90: 5.0 μm

Question: Which “PSD X10” value [3] does the source give for `O.O=C(O)c1ccc(CCN(CCc2ccccc2OCc2ccc(-c3ccc(C(F)(F)F)cc3)cc2Cl)[C@H]2CCCc3nc(C(=O)O)ccc32)cc1` [example 8e] here?
Answer: X10: 0.7 μm,

Question: What about the “PSD X50” value [3] of the same molecule?
Answer: X50: 2.1 μm,

Question: What about the “PSD X90” value [3] of the same molecule?
Answer: X90: 6.1 μm

Question: For `CCCc1nn(C)c2c(=O)[nH]c(-c3cc(S(=O)(=O)N4CCN(C)CC4)ccc3OCC)nc12` [sildenafil, reference compound], which BP decrease % [4, 21] is on record?
Answer: −10.6% and −6.1% and −14.5%

Question: And the PAP decrease % [4, 21]?
Answer: −15.3% and −34.3% and −16.1%

Question: What about the “effects on PAP and BP” value ([4]; bosentan 1 mg/kg, sildenafil 300 μg/kg/h, riociguat 3 μg/kg/h systemically, comparative example 11 30 and 100 μg/kg inhaled) of the same molecule?
Answer: decreases in both PAP and BP

Question: Which “PSD X10” value [3] does the source give for “Ethyl 5-{[2-(2-{[3-chloro-4′-(trifluoromethyl)biphenyl-4-yl]methoxy}phenyl)ethyl]amino}-5,6,7,8-tetrahydroquinoline-2-carboxylate [example 8a]” here?
Answer: X10: 0.4 μm,

Question: What about the “PSD X50” value [3] of the same molecule?
Answer: X50: 1.7 μm,

Question: And the “PSD X90” value [3]?
Answer: X90: 4.2 μm
